Data published in PubChem BioAssay AID2060616 (Molecular Pharmacology Branch, DTP, NCI, 2025).

Test system: 377384-186-R-J1-PDC complex spheroid viability
Experiment: Anticancer human tumor 377384-186-R-J1-PDC patient-derived pancreatic carcinoma cell line growth inhibition [CLK]
Settings: for viability, T/C: stronger effect = lower value; active = viability on the fitted dose curve at most 10% of control; inactive = the rest
Procedure, shortened: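 Patient-derived tumor cells grown as complex spheroids with HUVEC endothelial cells and mesenchymal stem cells, treated with drug combinations. Concentrations descend in half-log steps from near clinical Cmax, or from 10 microM if Cmax unknown.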

[1] = curve of first compound, second compound 0.0316 µM
[2] = curve of first compound, second compound 0.1 µM
[3] = curve of first compound, second compound 0.316 µM
[4] = curve of first compound, second compound 1 µM
[5] = curve of first compound, second compound 3.16 µM
[6] = curve of first compound, second compound 10 µM
[7] = second compound 0.0316 µM, first compound 0.0316 µM
[8] = second compound 0.0316 µM, first compound 0.1 µM
[9] = second compound 0.0316 µM, first compound 0.316 µM
[10] = second compound 0.0316 µM, first compound 1 µM
[11] = second compound 0.0316 µM, first compound 3.16 µM
[12] = second compound 0.0316 µM, first compound 10 µM
[13] = second compound 0.1 µM, first compound 0.0316 µM
[14] = second compound 0.1 µM, first compound 0.1 µM
[15] = second compound 0.1 µM, first compound 0.316 µM
[16] = second compound 0.1 µM, first compound 1 µM
[17] = second compound 0.1 µM, first compound 3.16 µM
[18] = second compound 0.1 µM, first compound 10 µM
[19] = second compound 0.316 µM, first compound 0.0316 µM
[20] = second compound 0.316 µM, first compound 0.1 µM
[21] = second compound 0.316 µM, first compound 0.316 µM
[22] = second compound 0.316 µM, first compound 1 µM
[23] = second compound 0.316 µM, first compound 3.16 µM
[24] = second compound 0.316 µM, first compound 10 µM
[25] = second compound 1 µM, first compound 0.0316 µM
[26] = second compound 1 µM, first compound 0.1 µM
[27] = second compound 1 µM, first compound 0.316 µM
[28] = second compound 1 µM, first compound 1 µM
[29] = second compound 1 µM, first compound 3.16 µM
[30] = second compound 1 µM, first compound 10 µM
[31] = second compound 3.16 µM, first compound 0.0316 µM
[32] = second compound 3.16 µM, first compound 0.1 µM
[33] = second compound 3.16 µM, first compound 0.316 µM
[34] = second compound 3.16 µM, first compound 1 µM
[35] = second compound 3.16 µM, first compound 3.16 µM
[36] = second compound 3.16 µM, first compound 10 µM
[37] = second compound 10 µM, first compound 0.0316 µM
[38] = second compound 10 µM, first compound 0.1 µM
[39] = second compound 10 µM, first compound 0.316 µM
[40] = second compound 10 µM, first compound 1 µM
[41] = second compound 10 µM, first compound 3.16 µM
[42] = second compound 10 µM, first compound 10 µM
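Note: spheroids exposed to agents for 7 days before reading.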
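Throughout, for viability, T/C: luminescence signal used as a stand-in for viable cells.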

CC1(C)CCC(CN2CCN(c3ccc(C(=O)NS(=O)(=O)c4ccc(NCC5CCOCC5)c([N+](=O)[O-])c4)c(Oc4cnc5[nH]ccc5c4)c3)CC2)=C(c2ccc(Cl)cc2)C1 + CNC(=O)c1ccc(Nc2nc(OC3CCCC3)c3c(-c4ccc5nc(C)oc5c4)c[nH]c3n2)c(OC)c1
> 10000 nM: IC50 [1] | IC50 [2]
< 31.6 nM: IC50 [3] | IC50 [4] | IC50 [5] | IC50 [6]
inactive: viability, T/C [7] 105% | viability, T/C [8] 93.2% | viability, T/C [9] 96.9% | viability, T/C [10] 109% | viability, T/C [11] 82.1% | viability, T/C [12] 104% | viability, T/C [13] 59.8% | viability, T/C [14] 57.4% | viability, T/C [15] 49.3% | viability, T/C [16] 56.6% | viability, T/C [17] 36.4% | viability, T/C [18] 59.8% | viability, T/C [19] 20.4% | viability, T/C [20] 21.6% | viability, T/C [21] 19.7% | viability, T/C [22] 19% | viability, T/C [23] 17.6% | viability, T/C [24] 21.1% | viability, T/C [25] 23.3% | viability, T/C [26] 22.5% | viability, T/C [27] 18.2% | viability, T/C [28] 19.1% | viability, T/C [29] 19.3% | viability, T/C [30] 21.6% | viability, T/C [31] 20.2% | viability, T/C [32] 20.7% | viability, T/C [33] 20% | viability, T/C [34] 18.8% | viability, T/C [35] 21.9% | viability, T/C [36] 20.9% | viability, T/C [37] 20.2% | viability, T/C [38] 21.6% | viability, T/C [39] 21.2% | viability, T/C [40] 20.1% | viability, T/C [41] 19.2% | viability, T/C [42] 21.3%

NC(=O)C(=Cn1cnc(-c2cc(C(F)(F)F)cc(C(F)(F)F)c2)n1)c1cncnc1 + CN1CCN(c2cc(C(=O)Nc3cc4cc(-c5cnn(C)c5)ccc4cn3)ccn2)CC1
active: viability, T/C (second compound 0.0316 µM, first compound 0.949 µM) 5.88% | viability, T/C (second compound 0.0316 µM, first compound 3 µM) 2% | viability, T/C (second compound 0.1 µM, first compound 0.949 µM) 3.11% | viability, T/C (second compound 0.1 µM, first compound 3 µM) 1.52% | viability, T/C (second compound 0.316 µM, first compound 0.0949 µM) 8.59% | viability, T/C (second compound 0.316 µM, first compound 0.3 µM) 1.27% | viability, T/C (second compound 0.316 µM, first compound 0.949 µM) 1.18% | viability, T/C (second compound 0.316 µM, first compound 3 µM) 2% | viability, T/C (second compound 1 µM, first compound 0.00949 µM) 0.39% | viability, T/C (second compound 1 µM, first compound 0.03 µM) 0.58% | viability, T/C (second compound 1 µM, first compound 0.0949 µM) 1.29% | viability, T/C (second compound 1 µM, first compound 0.3 µM) 1.21% | viability, T/C (second compound 1 µM, first compound 0.949 µM) 2.26% | viability, T/C (second compound 1 µM, first compound 3 µM) 2.39% | viability, T/C (second compound 3.16 µM, first compound 0.00949 µM) 0.7% | viability, T/C (second compound 3.16 µM, first compound 0.03 µM) 1.97% | viability, T/C (second compound 3.16 µM, first compound 0.0949 µM) 1.72% | viability, T/C (second compound 3.16 µM, first compound 0.3 µM) 1.71% | viability, T/C (second compound 3.16 µM, first compound 0.949 µM) 1.82% | viability, T/C (second compound 3.16 µM, first compound 3 µM) 2.81% | viability, T/C (second compound 10 µM, first compound 0.00949 µM) 0.61% | viability, T/C (second compound 10 µM, first compound 0.03 µM) 0.97% | viability, T/C (second compound 10 µM, first compound 0.0949 µM) 1.5% | viability, T/C (second compound 10 µM, first compound 0.3 µM) 0.79% | viability, T/C (second compound 10 µM, first compound 0.949 µM) 0.88% | viability, T/C (second compound 10 µM, first compound 3 µM) 0.91%
50.5 nM: IC50 [2]
< 9.49 nM: IC50 [3] | IC50 [4] | IC50 [5] | IC50 [6]
inactive: viability, T/C (second compound 0.0316 µM, first compound 0.00949 µM) 81.1% | viability, T/C (second compound 0.0316 µM, first compound 0.03 µM) 76% | viability, T/C (second compound 0.0316 µM, first compound 0.0949 µM) 50.1% | viability, T/C (second compound 0.0316 µM, first compound 0.3 µM) 21.7% | viability, T/C (second compound 0.1 µM, first compound 0.00949 µM) 87.6% | viability, T/C (second compound 0.1 µM, first compound 0.03 µM) 63.4% | viability, T/C (second compound 0.1 µM, first compound 0.0949 µM) 33.6% | viability, T/C (second compound 0.1 µM, first compound 0.3 µM) 14.3% | viability, T/C (second compound 0.316 µM, first compound 0.00949 µM) 21.2% | viability, T/C (second compound 0.316 µM, first compound 0.03 µM) 15%
99.6 nM: IC50 [1]

CC(CO)NC(=O)c1cc(-c2ccc(Cl)cc2)nn(-c2cnn(C)c2)c1=O (stereo not given) + CN1CCN(c2cc(C(=O)Nc3cc4cc(-c5cnn(C)c5)ccc4cn3)ccn2)CC1
> 10000 nM: IC50 [1] | IC50 [2]
< 31.6 nM: IC50 [3] | IC50 [4] | IC50 [5] | IC50 [6]
inactive: viability, T/C [7] 104% | viability, T/C [8] 118% | viability, T/C [9] 101% | viability, T/C [10] 93.5% | viability, T/C [11] 82.3% | viability, T/C [12] 51.5% | viability, T/C [13] 107% | viability, T/C [14] 105% | viability, T/C [15] 85.5% | viability, T/C [16] 101% | viability, T/C [17] 77.7% | viability, T/C [18] 57% | viability, T/C [19] 33.6% | viability, T/C [20] 30.6% | viability, T/C [21] 27.8% | viability, T/C [22] 31.3% | viability, T/C [23] 31.9% | viability, T/C [24] 29.1%
active: viability, T/C [25] 1.54% | viability, T/C [26] 1.76% | viability, T/C [27] 1.91% | viability, T/C [28] 1.77% | viability, T/C [29] 2.49% | viability, T/C [30] 2.71% | viability, T/C [31] 0.34% | viability, T/C [32] 1% | viability, T/C [33] 0.42% | viability, T/C [34] 0.4% | viability, T/C [35] 0.66% | viability, T/C [36] 0.95% | viability, T/C [37] 0.55% | viability, T/C [38] 0.43% | viability, T/C [39] 0.69% | viability, T/C [40] 0.78% | viability, T/C [41] 0.94% | viability, T/C [42] 0.42%

COc1ccc([C@@H](O)c2cc(-c3ncnc4cc(N5CCOCC5)ccc34)c(F)cc2Cl)nn1 + CNC(=O)c1ccc(Nc2nc(OC3CCCC3)c3c(-c4ccc5nc(C)oc5c4)c[nH]c3n2)c(OC)c1
inactive: viability, T/C [7] 93.6% | viability, T/C [8] 99.5% | viability, T/C [9] 92% | viability, T/C [10] 54.9% | viability, T/C [11] 49.6% | viability, T/C [12] 29.4% | viability, T/C [13] 36.8% | viability, T/C [14] 33.5% | viability, T/C [15] 40.5% | viability, T/C [16] 35% | viability, T/C [17] 26.5% | viability, T/C [18] 19.5% | viability, T/C [19] 16.1% | viability, T/C [20] 14.4% | viability, T/C [21] 17.4% | viability, T/C [22] 16.6% | viability, T/C [23] 16.1% | viability, T/C [24] 13.6% | viability, T/C [25] 15.9% | viability, T/C [26] 18.2% | viability, T/C [27] 18.3% | viability, T/C [28] 15.9% | viability, T/C [29] 15.3% | viability, T/C [30] 15.5% | viability, T/C [31] 14.7% | viability, T/C [32] 17.8% | viability, T/C [33] 18.1% | viability, T/C [34] 16.2% | viability, T/C [35] 16.6% | viability, T/C [36] 15.5% | viability, T/C [37] 15.7% | viability, T/C [38] 13.2% | viability, T/C [39] 17.6% | viability, T/C [40] 15.7% | viability, T/C [41] 17.3% | viability, T/C [42] 15.4%
< 31.6 nM: IC50 [2] | IC50 [3] | IC50 [4] | IC50 [5] | IC50 [6]
1640 nM: IC50 [1]

CN1CCN(c2cc(C(=O)Nc3cc4cc(-c5cnn(C)c5)ccc4cn3)ccn2)CC1
220 nM [middle of 9 runs]: IC50 (compound alone, run of 07/31/2023)
inactive: viability, T/C (compound 0.0316 µM) 102% [middle of 12 runs] | viability, T/C (compound 0.1 µM) 103% [middle of 12 runs] | viability, T/C (compound 0.316 µM) 25.7% [middle of 12 runs]
active: viability, T/C (compound 1 µM) 1.33% [middle of 12 runs] | viability, T/C (compound 3.16 µM) 0.96% [middle of 11 runs] | viability, T/C (compound 10 µM) 0.49% [middle of 11 runs]
